In US20230133504A1, “METHOD OF TREATING GRAFT-VERSUS-HOST DISEASE” (REGENTS OF THE UNIVERSITY OF MICHIGAN, priority 2021, published 2023):

How the values were obtained:
[1] = tested on: A20 mouse BALB/c lymphoma cell line in BALB/c recipient mice; experiment: graft-versus tumor (GVT): acute GVHD model challenged with A20 tumor cells; assay type: in vivo
Text: FIGS. 2A-2C. Compound No. 36 treatment of acute GVHD model challenged with A20 tumor cells. Using the same method as described in FIGS. 1A-1C, BALB/c recipient mice underwent major histocompatibility complex (MHC) major mismatch allogeneic bone marrow transplantation (BMT) with C57BL/6 donor or with BALB/c donor as syngeneic control. BALB/c recipient mice on day 0 received 5×10^6 of bone marrow cells and 1×10^6 of purified splenic T cells with or without 0.5×10^6 A20 cells inoculum. As indicated here, recipients received intraperitoneal injections of 25 mg/kg of Compound No. 36 or vector starting on day −1, then three time weekly, from day −1 to day 21. Mice were monitored weekly for survival and GVHD score. FIG. 2A indicates body weight changes of animals measured weekly.
Data in *, P<0.05; **, P<0.01. Syn—syngenic; Allo—allogeneic.
As GVHD is tightly linked to the graft-versus tumor (GVT) response, testing was undertaken to determine whether Compound No. 36 treatment reduces the effect of GVT in the same mouse model as for GVHD (Example 1). To that end, a mouse BALB/c lymphoma cell line, A20 (0.5×10^6), thus syngeneic to the recipients, was incorporated to the bone marrow transplantation (BMT) cell inoculum on day 0. Recipients received the same doses of Compound No. 36 or vector from day −1 to day 21 as the above model. Syngeneic recipients of BALB/c to BALB/c were also setup with or without A20 cell inoculum and injected the same doses of Compound No. 36 or vector. Syngeneic recipients challenged with A20 cells got systemic tumor infiltration (lower-limb paralysis, hepatosplenomegaly) and 100% of recipients died within 3 weeks after BMT without Compound No. 36 treatment (FIG. 2A and FIG. 2B).

[2] = tested on: acute GVHD in BALB/c recipient mice; experiment: acute GVHD model, C57BL/6 (H-2Kb) into BALB/c (H-2Kd) MHC mismatch bone marrow transplantation; assay type: in vivo, mouse; details: for survival: allogeneic recipients, 25 mg/kg i.p., p<0.001
Protocol: FIGS. 1A-1C. Compound No. 36 treatment of acute GVHD model. BALB/c recipient mice on day 0 received 5×10^6 of bone marrow cells and 1×10^6 of purified splenic T cells from allogeneic C57BL/6 donor or syngeneic BALB/c donor following lethal irradiation with 800 rads on day −1. Recipients received intraperitoneal injections of 25 mg/kg of Compound No. 36 or vector starting on day −1, then three times weekly, from day −1 to day 21. Mice were monitored […]. […] Data in *, P<0.05; **, P<0.01. Syn—syngenic; Allo—allogeneic.
To determine whether Compound No. 36 affects established parameters of acute GVHD, a well-established C57BL/6 (H-2Kb) into a BALB/c (H-2Kd) major histocompatibility complex (MHC) mismatch model was used. On day 0, BALB/c recipient mice received 5×10^6 of bone marrow cells and 1×10^6 of purified splenic T cells from allogeneic C57BL/6 donor or syngeneic BALB/c donor following lethal irradiation with 800 centiGray (units of radiation) on day −1. Recipients received intraperitoneal injections of 25 mg/kg every other day of Compound No. 36 or vector from day −1 to day 21. Mice were monitored daily for survival and weekly for GVHD score.

[3] = tested on: small intestinal organoids; experiment: small intestinal organoids culture in vitro (GFP-Lgr5 transgenic mouse crypts); assay type: cell-based
Protocol: FIGS. 3A-3D display the effect of Compound No. 36 on intestinal organoids culture in vitro. Intestinal organoids were established from culture of small intestinal crypts in GFP-Lgr5 transgene B6 mice. 3-5 passages of organoids were used to test the effect of Compound No. 36 in vitro. After dissociation of organoids, 100 crypts per well mixed with Matrigel-culture medium were plated in 24-well plate. After the Matrigel polymerized, 500 μL of culture medium with different concentrations of Compound No. 36 or vector were added to each well. The growth of the organoids was checked daily. Three days after coculture, organoid numbers and budding numbers were counted under the microscope and were photographed (FIG. 3A). Then, organoids were mechanically disrupted and dissociated into single cells with TrypLE Express. Cells were stained with anti-CD326, annexin V, and 7-AAD to analyze GFP-Lgr5^hi cells apoptosis by flow cytometry (FIGS. 3B-3D).
To further determine whether Compound No. 36 has any direct GVHD organ (e.g., GI tract) toxicity or conversely, a regenerative effects, in the context of BMT, various concentrations of Compound No. 36 was cocultured with established small intestinal organoids, in which the intestine crypts were from the GFP-Leucine-rich repeat-containing G protein-coupled receptor 5 (Lgr5) transgenic mouse strain. Intestinal organoids were established from culture of small intestinal crypts in GFP-Lgr5 transgene B6 mice. 3-5 passages of organoids were used to test the effect of Compound No. 36 in vitro. After dissociation of organoids, 100 crypts per well mixed with Matrigel-culture medium were plated in 24-well plate. After the Matrigel polymerized, 500 μL of culture medium with different concentrations of Compound No. 36 or vector were added to each well. Orgonoid growth was assessed daily. Three days after coculture, organoid numbers and budding numbers were counted under the microscope and were photographed (FIG. 3A). […] Organoids were then mechanically disrupted and dissociated into single cells with TrypLE Express. […]

## NC(=O)CC[C@H](NC(=O)[C@@H]1CC[C@@H]2CCN(C(=O)CCCCCC#Cc3cccc4c3CN(C3CCC(=O)NC3=O)C4=O)C[C@H](NC(=O)c3cc4cc(C(F)(F)P(=O)(O)O)ccc4[nH]3)C(=O)N21)C(=O)NC(c1ccccc1)c1ccccc1 (stereo partly drawn) [Compound No. 36, ((2-(((5S,8S,10aR)-8-(((S)-5-amino-1-(benzhydrylamino)-1,5-dioxopentan-2-yl)carbamoyl)-3-(8-(2-(2,6-dioxopiperidin-3-yl)-1-oxoisoindolin-4-yl)oct-7-ynoyl)-6-oxodecahydropyrrolo[1,2-a][1,5]diazocin-5-yl)carbamoyl)-1H-indol-5-yl)difluoromethyl)phosphonic acid]
[1]; allogeneic GVHD model challenged with A20 cells, by 6 weeks after BMT
  tumor-related death: no tumor-related death was observed
[1]; allogeneic GVHD model challenged with A20 cells, by 6 weeks after BMT, vector 50%, p<0.05
  mice survival: 100%
[1]; allogeneic GVHD model challenged with A20 cells, by 6 weeks after BMT, vs. vector
  GVHD severity: significantly reduced GVHD severity
[1]; syngeneic recipients receiving A20 cells (0.5x10^6), 25 mg/kg i.p. day -1 to day 21, vs. no treatment (100% died within 3 weeks)
  survival time: significantly extended the survival time
[2]; allogeneic C57BL/6 to BALB/c, 25 mg/kg intraperitoneal every other day, day -1 to day 21, vs. vector
  acute GVHD severity (body weight loss and clinical GVHD scores): significantly reduce acute GVHD severity by reducing body weight loss and clinical GVHD scores
[2]; day 50, vector 50%
  survival: 100%
[2]; day 100, vector 12%
  survival: 53%
[2]; syngeneic recipients BALB/c to BALB/c, same doses (25 mg/kg i.p.)
  signs of toxicity or GVHD: did not present any signs of toxicity
[2]; syngeneic recipients BALB/c to BALB/c, same doses, until the end point
  survival rate: 100%
[3]; conclusion from the organoid data
  toxicity on intestine: does not have significant toxicity on intestine
[3]; three days after coculture, series concentrations
  organoid numbers and budding numbers: No significant changes were observed
[3]; three days after coculture, vs. vector group
  Lgr5-GFP+ stem cells and Annexin V expression (apoptosis) by flow cytometry: no differences between vector group and Compound No. 36 treatment group were observed
